Laboratory results reported in article PMC9698607, “Dual Functionalized Liposomes for Selective Delivery of Poorly Soluble Drugs to Inflamed Brain Regions” (Pharmaceutics, 2022).
Blank lines part the entries; values can stand above or below the compound they belong to.

Key:
Recombinant human MMP2 = target: T1, Recombinant human MMP2 (Homo sapiens, UniProt P08253); experiment: MMP2 activity assay on MSLPs (HPLC); type: biochemical; conditions: 48 h, 37 °C, 0.1 μg/mL rhMMP2, 100 μM MSLP, 50 mM Tris, 10 mM CaCl2, 150 mM NaCl, 0.05% Brij 35, pH 7.5
T1 construct: purchased R&D Systems
T1 sequence (P08253 110-660): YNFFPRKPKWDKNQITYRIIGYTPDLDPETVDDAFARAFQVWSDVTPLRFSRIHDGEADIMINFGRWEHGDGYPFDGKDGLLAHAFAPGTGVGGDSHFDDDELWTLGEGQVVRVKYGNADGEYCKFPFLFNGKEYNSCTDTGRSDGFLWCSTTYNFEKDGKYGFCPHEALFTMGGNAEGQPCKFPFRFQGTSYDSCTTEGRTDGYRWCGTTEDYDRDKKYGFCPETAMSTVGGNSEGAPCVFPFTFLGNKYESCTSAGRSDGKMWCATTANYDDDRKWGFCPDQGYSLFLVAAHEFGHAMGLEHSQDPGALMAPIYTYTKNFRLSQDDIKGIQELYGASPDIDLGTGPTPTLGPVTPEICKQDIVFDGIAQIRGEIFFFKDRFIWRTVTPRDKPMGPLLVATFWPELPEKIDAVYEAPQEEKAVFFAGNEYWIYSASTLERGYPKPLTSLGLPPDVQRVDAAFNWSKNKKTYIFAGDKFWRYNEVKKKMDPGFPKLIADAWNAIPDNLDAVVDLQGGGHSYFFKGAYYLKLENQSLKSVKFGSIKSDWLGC
Description: (§1) Recombinant human MMP2 (rhMMP2, R&D system, Minneapolis, MN, USA) was diluted to 0.2 μg/mL in 200 µL assay buffer (50 mm Tris, 10 mM CaCl2, 150 mm NaCl, 0.05% (w/v) Brij 35, pH 7.5). The enzymatic reaction was started by adding 200 μL of 200 μM MSLPs in the assay buffer, and was stirred at 37 °C for 48 h. Final concentrations were 0.1 μg/mL for MMP2 and 100 μM for MSLPs. The reaction was monitored by HPLC between 1 and 48 h on a small aliquot, by deactivating the enzyme with a 10% aqueous TFA solution. MSLPs’ solutions in assay buffer (see below) were used as a blank. A pronase/unspecific protease activity assay on MSLPs was carried out by diluting a mixture of proteolytic enzymes at 2 ng/mL, 0.2 µg/mL and 20 µg/mL in 200 µL assay buffer (50 mm Tris, 10 mm CaCl2, 150 mm NaCl, 0.05% (w/v) Brij 35, pH 7.5). The enzymatic reaction was started by adding 200 μL of 200 μM MSLPs in the assay buffer, and was stirred at 37 °C for 48 h. Final concentrations of 1 ng/mL, 0.1 μg/mL and 10 μg/mL (Pronase) and 100 μM (MSLPs) were used. The reaction was monitored by HPLC between 1 and 48 h on a small aliquot, by deactivating the enzymes with a 10% aqueous TFA solution. MSLPs’ solutions in assay buffer were used as a blank.

[1] = tested on: IL-6 release from BV2 microglial cells; experiment: IL-6 ELISA in LPS-stimulated BV2 cells; type: cell-based, mouse; conditions: free glibenclamide 10 to 80 μM for 60 h, then LPS for 8 h
Description: BV2 microglial cells, RAW264.7 and Neuro2A (N2A) cells were cultured in DMEM supplemented with 10% heat-inactivated FBS, 100 U/mL penicillin and 100 μg/mL streptomycin at 37 °C in a humidified 5% CO2 atmosphere. The day before the experiment, BV2 cells were plated on 24 well plates at 80,000 cells/well; LPS was dissolved in PBS as a stock solution (1 mg/mL), and stored at −20 °C. […] Cells were left in vitro for 40 or 60 h, treated with LPS for additional 8 h before using supernatants for an ELISA assessment of TNFα and IL-6. BV2 cells were seeded in 24-well plates at 80,000 cells/well, then treated with LPS (0.5 µg/mL) to induce TNFα and IL-6 production. Cells were treated for 8 h. Cytokine levels in cells supernatants collected before and after treatment were assayed using the mouse TNF-alpha DuoSet ELISA (R&D Systems, DY410) and the mouse IL-6 DuoSet ELISA kit (R&D Systems, DY406), according to manufacturer’s instructions.

[2] = tested on: TNFα release from BV2 microglial cells; experiment: TNFα ELISA in LPS-stimulated BV2 cells; type: cell-based, mouse; conditions: free glibenclamide 10 to 80 μM for 60 h, then LPS for 8 h
Description: BV2 microglial cells, RAW264.7 and Neuro2A (N2A) cells were cultured in DMEM supplemented with 10% heat-inactivated FBS, 100 U/mL penicillin and 100 μg/mL streptomycin at 37 °C in a humidified 5% CO2 atmosphere. The day before the experiment, BV2 cells were plated on 24 well plates at 80,000 cells/well; LPS was dissolved in PBS as a stock solution (1 mg/mL), and stored at −20 °C. BV2 cells seeded into multiplates were exposed to LPS (0.5 µg/mL) in presence or absence of glibenclamide (40 µM), empty mApoE-MSLP1-liposomes and mApoE-MSLP1 loaded with glibenclamide. Cells were left in vitro for 40 or 60 h, treated with LPS for additional 8 h before using supernatants for an ELISA assessment of TNFα and IL-6. BV2 cells were seeded in 24-well plates at 80,000 cells/well, then treated with LPS (0.5 µg/mL) to induce TNFα and IL-6 production. Cells were treated for 8 h. Cytokine levels in cells supernatants collected before and after treatment were assayed using the mouse TNF-alpha DuoSet ELISA (R&D Systems, DY410) and the mouse IL-6 DuoSet ELISA kit (R&D Systems, DY406), according to manufacturer’s instructions.

primary neurons [3] = experiment: LDH-Glo cytotoxicity assay on primary neurons; type: cell-based; conditions: primary mouse cortical neurons; 24 h; 0.085, 0.85, 8.5 and 85 µM glibenclamide; supernatants
Description: Primary neuronal cell cultures were established from C57Bl/6J E17.5 embryonic cerebral cortices (Charles River), according to our published protocol [37]. Briefly, we dissected forebrains in cold HBSS supplemented with 0.6% glucose and 5 mM HEPES pH 7.4 to obtain cerebral cortices. Cortices were mechanically dissociated in single cell preparations and re-suspended in culture medium containing Neurobasal, 5 mM HEPES pH 7.4, 0.6% glucose and the 1× B27 supplement. Cells were plated at 30,000 cells/well on 96 multi wells previously coated with poly lysine (0.2 mg/mL), and primed with Dulbecco’s modified Eagle’s media (DMEM) 20% FBS. […] Neurons were left to mature for 16 days, and upon visual inspection were used for cytotoxicity assays.
A bioluminescent lactate dehydrogenase (LDH)-release assay (LDH-Glo Cytotoxicity Assay, Promega) was used to assess cytotoxicity in supernatants of cells treated with liposomes according to manufacturer’s instruction. […] In each experiment, we calculated the % of cytotoxicity as follows:(Exp.LDH Release − MB)/(Max LDH Release Control − MB)(2) where MB is Medium Background.

primary neurons [4] = experiment: CCK8 cell viability assay on primary neurons; type: cell-based; conditions: primary mouse cortical neurons, 16 days in vitro; 24 h; 0.085, 0.85, 8.5 and 85 µM glibenclamide; compared with DMSO controls
Description: C57BL6J mice were maintained under pathogen-free conditions at San Raffaele Hospital mouse facility (Milan, Italy). Procedures were performed according to the guidelines of the Institutional Animal Care and Use Committee of the San Raffaele Scientific Institute and the Ministry of Health (protocol number 372/2021-PR). Primary neuronal cell cultures were established from C57Bl/6J E17.5 embryonic cerebral cortices (Charles River), according to our published protocol. Briefly, we dissected forebrains in cold HBSS supplemented with 0.6% glucose and 5 mM HEPES pH 7.4 to obtain cerebral cortices. Cortices were mechanically dissociated in single cell preparations and re-suspended in culture medium containing Neurobasal, 5 mM HEPES pH 7.4, 0.6% glucose and the 1× B27 supplement. Cells were plated at 30,000 cells/well on 96 multi wells previously coated with poly lysine (0.2 mg/mL), and primed with Dulbecco’s modified Eagle’s media (DMEM) 20% FBS. Cells were maintained in a humidified 5% CO2/95% air environment at 37 °C. […] Cell viability was measured using the Cell Counting Kit-8 (CCK8) Metabolic Assay Kit, following the manufacturer’s protocol (Sigma-Aldrich, Burlington, VT, USA). […] We measured samples absorbance every 30 min at 450 nm, using a Multiskan Sky (Thermo fisher scientific, Waltham, MA, USA). Absorbance readings were subsequently normalized to the mean value of the controls.

pronase = experiment: Pronase/unspecific protease activity assay on MSLPs (HPLC); type: biochemical; conditions: 100 μM MSLP, 37 °C, up to 48 h, assay buffer pH 7.5
Description: as §1

HPLC peak of lipopeptide after incubation with MMP2 (Recombinant human MMP2): still present
Compound: SKK(stearate)GSALGQIGPSK(stearate)KS [c-MSLP]

Compound: COc1ccc(Cl)cc1C(=O)NCCc1ccc(S(=O)(=O)NC(=O)NC2CCCCC2)cc1 [glibenclamide]
IL-6 levels [1]: dose-dependent reduction
TNFα levels [2]: dose-dependent reduction
cytotoxicity (LDH release) (primary neurons [3]): did not increase cytotoxicity
cell viability (CCK8) (primary neurons [4]): did not affect cell viability

HPLC peak of lipopeptide after incubation with MMP2 (Recombinant human MMP2): completely disappeared
Compound: SKK(stearate)SGPLGIAGQSK(stearate)KS [MSLP-1, MMP2-responsive lipopeptide with two stearate tails]

HPLC peak of lipopeptide after incubation with MMP2 (Recombinant human MMP2): still present
cleavage by pronase (pronase; 10 μg/mL pronase): complete cleavage
change of intensity of HPLC peak with pronase (pronase; lower pronase concentrations (1 ng/mL, 0.1 μg/mL)): no significant change
Compound: SKK(stearate)SGAKPRA-LTASK(stearate)KS [MSLP-2, MMP2/9-responsive lipopeptide with two stearate tails]
